PMC11320742, “Radiosynthesis and Evaluation of 11C-Labeled Isoindolone-Based Positive Allosteric Modulators for Positron Emission Tomography Imaging of Metabotropic Glutamate Receptor 2” (ACS Pharmacology & Translational Science, 2024)

Experiments:
mGluR2 [1] = target: T1, mGluR2 (Homo sapiens, UniProt Q14416); assay: Saturation binding of tritiated ligands on CHO membranes stably expressing mGluR2; conditions: for Ki: mGluR2, CHO membranes; for Kd: saturation binding of tritiated ligand, CHO membranes expressing mGluR2
T1 construct: expressed in transfected cells; host or cells: CHO
Protocol: (§1) To determine the binding affinities, saturation binding experiments of the corresponding tritiated ligands were conducted on CHO membranes stably expressing mGluR2. […] Multiparameter optimization (MPO) is a valuable tool to evaluate the BBB permeability of drug candidates. […] To investigate the selectivity of AZ12559322 for mGluR2, further counter-screening of AZ12559322 was conducted, and the results are detailed in Figure 3C.

mGluR2 [2] = target: T2, mGluR2 (Rattus norvegicus, UniProt P31421); assay: In vitro ARG of [3H]AZ12559322 on rat brain tissues (binding data, Figure S1); conditions: determined by in vitro ARG of [3H]AZ12559322 on rat brain tissues
T2 construct: the brain sections of rat or cynomolgus monkey brains in 20 μm thickness; from tissue; host or cells: rat brain sections
Protocol: To determine the binding affinities, saturation binding experiments of the corresponding tritiated ligands were conducted on CHO membranes stably expressing mGluR2. […] The blood–brain barrier permeability (log BB) values of 3a–3c were predicted in the range of −0.14 to −0.51. Multiparameter optimization (MPO) is a valuable tool to evaluate the BBB permeability of drug candidates. In general, CNS MPO scores on a scale between 0 and 6, and the score value ≥4.0 is highly desirable. […] Therefore, AZ12559322 was selected as the most promising mGluR2 PAM for further ADME profiling. To investigate the selectivity of AZ12559322 for mGluR2, further counter-screening of AZ12559322 was conducted, and the results are detailed in Figure 3C.
(§2) The tritium-labeled ligand [^3H]AZ12559322 for ARG studies was prepared by AstraZeneca.[23] Briefly, the brain sections of rat or cynomolgus monkey brains in 20 μm thickness were warmed to room temperature in a vacuum chamber over 3 h on the day of the experiment.[52] All sections were incubated in 50 mM Tris HCl, 5 mM MgCl2, and 0.9% NaCl (pH 7.4) for 5 min at room temperature. The brain sections were dried and incubated with [^3H]AZ12559322 in the above buffer for 30 min at ambient temperature. […]

mGluR1 = mGluR1 (Homo sapiens, UniProt Q13255); assay: Counter-screening, mGluR family selectivity; format: biochemical
Protocol: as §1

mGluR2 [3] = target: T1, mGluR2; assay: Counter-screening, mGluR family selectivity; format: biochemical
Protocol: as §1

mGluR3 = mGluR3 (Homo sapiens, UniProt Q14832); assay: Counter-screening, mGluR family selectivity; format: biochemical
Protocol: as §1

mGluR4 = mGluR4 (Homo sapiens, UniProt Q14833); assay: Counter-screening, mGluR family selectivity; format: biochemical
Protocol: as §1

mGluR5 = mGluR5 (Homo sapiens, UniProt P41594); assay: Counter-screening, mGluR family selectivity; format: biochemical
Protocol: as §1

mGluR6 = mGluR6 (Homo sapiens, UniProt O15303); assay: Counter-screening, mGluR family selectivity; format: biochemical
Protocol: as §1

mGluR7 = mGluR7 (Homo sapiens, UniProt Q14831); assay: Counter-screening, mGluR family selectivity; format: biochemical
Protocol: as §1

mGluR8 = mGluR8 (Homo sapiens, UniProt O00222); assay: Counter-screening, mGluR family selectivity; format: biochemical
Protocol: as §1

pKa = format: physicochemical
Protocol: as §1

hERG channel = hERG channel (Homo sapiens, UniProt Q12809); assay: hERG channel inhibition; format: biochemical
CYP1A2 = target: T3, CYP1A2 (Homo sapiens, UniProt P05177); assay: CYP inhibition; format: in vitro ADME
T3 sequence (P05177 1-516): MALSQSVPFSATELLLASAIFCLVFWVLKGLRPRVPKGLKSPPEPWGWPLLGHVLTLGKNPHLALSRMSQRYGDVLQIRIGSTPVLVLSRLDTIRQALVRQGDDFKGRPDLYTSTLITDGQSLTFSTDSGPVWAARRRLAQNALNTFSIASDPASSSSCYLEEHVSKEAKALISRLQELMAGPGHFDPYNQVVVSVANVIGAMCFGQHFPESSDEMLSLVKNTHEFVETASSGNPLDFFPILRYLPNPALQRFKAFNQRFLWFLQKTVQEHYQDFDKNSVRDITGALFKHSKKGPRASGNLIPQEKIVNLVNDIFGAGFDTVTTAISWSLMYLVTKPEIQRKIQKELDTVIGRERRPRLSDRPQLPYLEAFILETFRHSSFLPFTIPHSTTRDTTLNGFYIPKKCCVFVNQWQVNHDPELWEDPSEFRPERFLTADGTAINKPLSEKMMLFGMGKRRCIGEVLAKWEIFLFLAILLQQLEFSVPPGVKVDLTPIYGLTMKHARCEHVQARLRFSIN

CYP2C19 = CYP2C19 (Homo sapiens, UniProt P33261); assay: CYP inhibition; format: in vitro ADME
CYP2C9 = CYP2C9 (Homo sapiens, UniProt P11712); assay: CYP inhibition; format: in vitro ADME
CYP2D6 = CYP2D6 (Homo sapiens, UniProt P10635); assay: CYP inhibition; format: in vitro ADME
CYP3A4 = CYP3A4 (Homo sapiens, UniProt P08684); assay: CYP inhibition; format: in vitro ADME
mGluR2 [4] = assay: In vitro autoradiography of NHP prefrontal cortex with [3H]AZ12559322 (blocking); format: binding, cynomolgus monkey; conditions: blocker 5 μM, n = 2
Protocol: (§3) Encouraged by the promising ligand–protein binding ability of AZ12559322, in vitro autoradiography (ARG) studies were conducted on rat brain tissues to assess the binding specificity of [^3H]AZ12559322. Consistent with previous reports of the regional mGluR2 expression in the rat brain,[45] […] Subsequently, in vitro ARG studies with brain regions from cynomolgus monkeys were conducted to confirm the specificity in higher species. […] Subsequent immunohistochemical analyses verified that […] was binding to the regions with high expression of mGluR2 (see Figure S2 in the Supporting Information). Altogether, these studies indicated high mGluR2 in vitro binding specificity of AZ12559322 on rat and NHP brain tissue sections and positive allosteric mechanism of action.
Figure 6 In vitro autoradiography and quantitative analyses of NHP prefrontal cortex with [^3H]AZ12559322 (n = 2). Total binding and nonspecific binding in the presence of 5 μM of LY-487379 or AZD8418. *p < 0.05.
as §2, with “temperature.” for “temperature. The brain sections were dried and incubated with [^3H]AZ12559322 in the above buffer for 30 min at ambient temperature.”

mGluR2 [5] = target: T2, mGluR2; assay: In situ [35S]GTPγS autoradiography in rat brain tissue; format: biochemical; conditions: in the presence of agonist LY379268
Protocol: as §3
(§4) The in situ GTPγS ARG studies in the rat and NHP brain tissues were conducted according to previous reports.[54] Briefly, […] thick brain tissue sections were incubated twice in assay buffer, pH 7.5 for 10 min at 25 °C and once in assay buffer with 2 mM GDP for 15 min at 25 °C. Slides were then incubated in an assay buffer containing 0.04 nM [^35S]GTPgS in the presence or absence of LY379268 and AZD8529 for 2 h at 25 °C. The incubation was stopped by washing twice for 3 min in ice-cold 50 mM Tris–HCl and a quick dip in ice-cold distilled water. […] Films were developed by standard techniques, digitized, and analyzed.

mGluR2 [6] = assay: In situ [35S]GTPγS autoradiography in NHP brain tissue; format: biochemical; conditions: in the presence of agonist LY379268
Protocol: as §3, §4

mGluR2 [7] = target: T2, mGluR2; assay: In vitro autoradiography of rat brain tissue with [3H]AZ12559322 (baseline and blockade); format: binding; conditions: baseline; high in prefrontal cortex, cerebral cortex, hippocampus; low in thalamus
Protocol: as §3
Figure 5 In vitro autoradiography of rat brain tissue with [^3H]AZ12559322. (A) Autoradiograms after incubation with either [^3H]AZ12559322 only (baseline) or 10 μM AZ12522721 (blockade). (B) Quantitative analyses of the autoradiograms under baseline and blocking conditions (n = 4). ***p ≤ 0.001, ns = nonsignificant.
The tritium-labeled ligand [^3H]AZ12559322 for ARG studies was prepared by AstraZeneca.[23] Briefly, the brain sections of rat or cynomolgus monkey brains in 20 μm thickness were warmed to room temperature in a vacuum chamber over 3 h on the day of the experiment.[52] […]

mGluR2 [8] = assay: PET imaging in NHP; format: in vivo; conditions: cynomolgus monkey, IV injection, baseline
Protocol: With all three radioligands in hand, we sought to evaluate the feasibility of these radioligands for quantifying mGluR2 PAM occupancy in the NHP brain. PET imaging studies of [^11C]AZ12559322, [^11C]AZ12592068, and [^11C]AZ12588953 were performed in a cynomolgus monkey. Radioactivity was acquired for 120 min after IV injection of the respective radioligand. […] Further structural modification of these isoindolone derivatives is necessary to enhance brain exposure and provide a suitable radioligand for in vivo imaging.
PET imaging studies were conducted in one anesthetized healthy cynomolgus monkey and are fully detailed in Dahl et al.[53] The study was approved by the Stockholm Animal Research Ethical Committee (Dnr. N245/04). […] The head was immobilized with a fixation device, and body temperature was maintained by Bair Hugger model 505 (Arizant Healthcare, MN, USA) and continuously monitored by an esophageal thermometer. ECG, heart rate, blood pressure, respiratory rate, and oxygen saturation were continuously monitored throughout the experiments. […] Radioactivity in the brain was measured continuously for 123 min using the high-resolution research tomograph (HRRT; Siemens Molecular Imaging, Knoxville, TN, USA) according to a preprogrammed series of 34 frames.

T1 sequence (Q14416 19-872): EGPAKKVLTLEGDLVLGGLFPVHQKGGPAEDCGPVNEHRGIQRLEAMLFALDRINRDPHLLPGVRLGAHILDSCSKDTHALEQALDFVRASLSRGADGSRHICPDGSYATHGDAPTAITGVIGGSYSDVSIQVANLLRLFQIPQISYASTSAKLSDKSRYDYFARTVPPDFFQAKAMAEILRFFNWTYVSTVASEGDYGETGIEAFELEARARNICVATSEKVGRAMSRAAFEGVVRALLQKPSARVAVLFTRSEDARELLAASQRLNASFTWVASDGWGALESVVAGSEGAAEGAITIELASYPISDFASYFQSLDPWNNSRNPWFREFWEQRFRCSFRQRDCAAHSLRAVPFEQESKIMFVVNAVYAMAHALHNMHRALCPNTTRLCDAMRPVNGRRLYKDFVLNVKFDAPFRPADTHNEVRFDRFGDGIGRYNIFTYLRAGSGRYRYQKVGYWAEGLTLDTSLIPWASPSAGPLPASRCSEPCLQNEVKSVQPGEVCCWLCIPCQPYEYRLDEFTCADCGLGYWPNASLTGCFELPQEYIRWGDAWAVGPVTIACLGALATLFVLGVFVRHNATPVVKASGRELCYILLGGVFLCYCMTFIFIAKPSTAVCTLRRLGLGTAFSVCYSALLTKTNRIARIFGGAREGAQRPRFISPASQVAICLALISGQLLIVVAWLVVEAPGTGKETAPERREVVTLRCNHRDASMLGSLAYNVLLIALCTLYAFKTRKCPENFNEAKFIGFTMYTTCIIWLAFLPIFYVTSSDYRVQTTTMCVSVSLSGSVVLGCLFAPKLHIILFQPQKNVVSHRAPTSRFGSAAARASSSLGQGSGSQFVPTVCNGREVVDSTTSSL
T2 sequence (P31421 19-872): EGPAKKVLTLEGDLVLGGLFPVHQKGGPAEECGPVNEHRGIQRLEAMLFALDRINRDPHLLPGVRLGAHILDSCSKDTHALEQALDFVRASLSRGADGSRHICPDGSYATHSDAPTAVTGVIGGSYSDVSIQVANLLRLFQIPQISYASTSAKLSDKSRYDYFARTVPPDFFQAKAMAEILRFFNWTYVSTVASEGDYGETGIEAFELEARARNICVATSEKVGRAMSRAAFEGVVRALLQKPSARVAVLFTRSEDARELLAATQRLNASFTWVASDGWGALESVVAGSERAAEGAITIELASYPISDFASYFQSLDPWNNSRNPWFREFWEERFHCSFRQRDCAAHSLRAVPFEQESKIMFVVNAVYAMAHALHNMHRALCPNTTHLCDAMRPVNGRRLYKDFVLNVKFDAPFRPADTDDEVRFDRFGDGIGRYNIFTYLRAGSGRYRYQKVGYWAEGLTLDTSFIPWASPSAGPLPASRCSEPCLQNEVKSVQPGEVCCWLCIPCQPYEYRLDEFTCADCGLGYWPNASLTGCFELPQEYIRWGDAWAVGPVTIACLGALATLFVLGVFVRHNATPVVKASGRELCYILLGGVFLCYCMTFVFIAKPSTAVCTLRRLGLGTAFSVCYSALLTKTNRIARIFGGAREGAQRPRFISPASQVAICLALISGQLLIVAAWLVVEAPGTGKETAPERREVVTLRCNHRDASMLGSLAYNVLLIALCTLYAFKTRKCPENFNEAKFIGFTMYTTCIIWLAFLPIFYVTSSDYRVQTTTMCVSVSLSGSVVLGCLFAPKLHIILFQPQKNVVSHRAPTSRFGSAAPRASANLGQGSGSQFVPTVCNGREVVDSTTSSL
CYP2C9, sequence (P11712 whole entry): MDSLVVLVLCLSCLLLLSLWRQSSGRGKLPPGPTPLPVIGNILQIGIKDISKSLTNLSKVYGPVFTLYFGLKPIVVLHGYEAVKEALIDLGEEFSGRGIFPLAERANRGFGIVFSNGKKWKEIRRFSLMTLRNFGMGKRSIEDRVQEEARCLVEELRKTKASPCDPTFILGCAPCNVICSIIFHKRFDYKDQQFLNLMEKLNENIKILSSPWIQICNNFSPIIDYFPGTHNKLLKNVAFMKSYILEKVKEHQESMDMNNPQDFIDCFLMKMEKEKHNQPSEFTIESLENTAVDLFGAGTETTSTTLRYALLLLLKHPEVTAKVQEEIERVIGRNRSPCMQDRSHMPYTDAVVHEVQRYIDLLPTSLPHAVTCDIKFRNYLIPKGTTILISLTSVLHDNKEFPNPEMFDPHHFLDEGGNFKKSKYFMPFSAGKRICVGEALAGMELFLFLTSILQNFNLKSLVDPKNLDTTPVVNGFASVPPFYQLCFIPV
CYP2D6, sequence (P10635 whole entry): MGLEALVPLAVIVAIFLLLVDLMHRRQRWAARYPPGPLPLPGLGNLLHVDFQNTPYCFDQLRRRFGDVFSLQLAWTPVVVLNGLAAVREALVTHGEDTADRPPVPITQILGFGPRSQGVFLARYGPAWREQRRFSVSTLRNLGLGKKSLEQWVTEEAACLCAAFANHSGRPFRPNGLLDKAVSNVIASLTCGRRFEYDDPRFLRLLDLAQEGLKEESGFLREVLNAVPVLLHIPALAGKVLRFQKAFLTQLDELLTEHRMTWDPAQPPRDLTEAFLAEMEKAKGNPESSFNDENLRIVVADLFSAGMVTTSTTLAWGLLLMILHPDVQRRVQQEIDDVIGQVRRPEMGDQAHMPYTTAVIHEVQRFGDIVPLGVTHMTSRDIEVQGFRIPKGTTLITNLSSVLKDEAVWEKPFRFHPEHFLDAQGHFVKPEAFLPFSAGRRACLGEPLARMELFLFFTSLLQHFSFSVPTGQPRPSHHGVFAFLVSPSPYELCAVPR
CYP2C19, sequence (P33261 whole entry): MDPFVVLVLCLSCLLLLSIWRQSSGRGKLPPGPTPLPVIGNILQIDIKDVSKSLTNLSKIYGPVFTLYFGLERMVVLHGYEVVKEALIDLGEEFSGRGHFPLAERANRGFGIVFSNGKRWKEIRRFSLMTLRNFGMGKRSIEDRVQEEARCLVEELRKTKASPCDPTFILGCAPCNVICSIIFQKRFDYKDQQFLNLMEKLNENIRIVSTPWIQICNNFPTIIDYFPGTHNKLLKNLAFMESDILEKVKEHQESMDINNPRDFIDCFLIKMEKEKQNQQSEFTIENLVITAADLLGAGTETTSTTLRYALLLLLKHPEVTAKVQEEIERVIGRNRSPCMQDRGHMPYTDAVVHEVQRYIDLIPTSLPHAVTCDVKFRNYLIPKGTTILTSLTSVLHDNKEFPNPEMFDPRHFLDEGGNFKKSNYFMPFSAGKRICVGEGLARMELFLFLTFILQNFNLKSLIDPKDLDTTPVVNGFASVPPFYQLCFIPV
CYP3A4, sequence (P08684 whole entry): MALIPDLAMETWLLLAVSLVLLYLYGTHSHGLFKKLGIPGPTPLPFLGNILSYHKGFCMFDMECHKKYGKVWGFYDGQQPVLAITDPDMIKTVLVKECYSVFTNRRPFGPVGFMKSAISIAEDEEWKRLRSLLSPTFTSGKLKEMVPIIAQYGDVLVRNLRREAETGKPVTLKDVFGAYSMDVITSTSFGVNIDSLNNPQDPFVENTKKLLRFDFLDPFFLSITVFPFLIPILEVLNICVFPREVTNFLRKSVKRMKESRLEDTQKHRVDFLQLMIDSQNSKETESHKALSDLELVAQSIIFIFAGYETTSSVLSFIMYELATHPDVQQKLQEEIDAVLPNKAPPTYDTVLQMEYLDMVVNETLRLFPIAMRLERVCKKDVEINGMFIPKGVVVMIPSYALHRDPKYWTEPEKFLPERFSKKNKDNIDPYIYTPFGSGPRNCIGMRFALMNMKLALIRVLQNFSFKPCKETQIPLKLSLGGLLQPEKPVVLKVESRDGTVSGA
mGluR4, sequence (Q14833 33-912): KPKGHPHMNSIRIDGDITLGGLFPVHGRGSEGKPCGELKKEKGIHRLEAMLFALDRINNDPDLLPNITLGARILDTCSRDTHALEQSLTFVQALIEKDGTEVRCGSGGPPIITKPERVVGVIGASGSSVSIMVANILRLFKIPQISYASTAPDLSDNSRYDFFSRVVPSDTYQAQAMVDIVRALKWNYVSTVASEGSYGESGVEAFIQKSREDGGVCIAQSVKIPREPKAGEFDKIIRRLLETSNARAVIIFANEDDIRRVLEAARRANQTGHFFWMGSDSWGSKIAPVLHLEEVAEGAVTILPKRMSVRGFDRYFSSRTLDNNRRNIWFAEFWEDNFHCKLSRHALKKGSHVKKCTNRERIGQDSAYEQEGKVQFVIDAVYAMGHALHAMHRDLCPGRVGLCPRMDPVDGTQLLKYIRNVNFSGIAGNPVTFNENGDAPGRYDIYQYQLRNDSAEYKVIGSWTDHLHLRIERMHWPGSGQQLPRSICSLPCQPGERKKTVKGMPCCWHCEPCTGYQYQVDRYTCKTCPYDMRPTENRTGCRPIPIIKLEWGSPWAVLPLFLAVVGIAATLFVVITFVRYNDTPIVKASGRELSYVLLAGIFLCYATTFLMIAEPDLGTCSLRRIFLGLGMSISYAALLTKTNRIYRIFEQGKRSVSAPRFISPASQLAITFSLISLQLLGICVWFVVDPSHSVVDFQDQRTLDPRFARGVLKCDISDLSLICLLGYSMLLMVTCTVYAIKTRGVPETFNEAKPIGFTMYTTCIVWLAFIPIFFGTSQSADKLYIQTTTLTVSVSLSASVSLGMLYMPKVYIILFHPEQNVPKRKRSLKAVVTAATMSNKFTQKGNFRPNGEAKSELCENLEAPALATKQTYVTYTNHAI

Compound `Cc1cc(-c2cccc(NS(C)(=O)=O)c2)cc2c1C(=O)N(C(C)C)C2` [AZ12559322, N-[3-(2-isopropyl-7-methyl-1-oxo-2,3-dihydro-1H-isoindol-5-yl)phenyl]methanesulfonamide] has a Ki (mGluR2 [1]) of 2.68 nM, a Kd (mGluR2 [1]) of 11 nM and a Specific binding% (mGluR2 [1]; specific binding to mGluR2 in vitro) of 89%. For the same compound, the Kd (mGluR2 [2]) was 1.31 nM, the IC50 (mGluR1) was over 30000 nM and the IC50 (mGluR2 [3]) was 4.7 nM. The “Selectivity for mGluR2 over all other mGluR subtypes” value (mGluR2 [3]; against all other mGluRs) was over 4000 fold, the IC50 (mGluR3) was over 25000 nM and the IC50 (mGluR4) was over 23600 nM. The IC50 (mGluR5) was over 30000 nM, the IC50 (mGluR6) was over 30000 nM and the IC50 (mGluR7) was over 30000 nM. For the same compound, the IC50 (mGluR8) was over 20300 nM, the pKa (pKa) was 8.46 and the IC50 (hERG channel) was 9350 nM. For the same compound, the inhibition at 10 µM (CYP1A2) was 37%, the inhibition at 1 µM (CYP2C19; at 1 μM) was 13% and the inhibition at 10 µM (CYP2C19; at 10 μM) was 51%. For the same compound, the inhibition at 1 µM (CYP2C9; at 1 μM) was 8%, the inhibition at 10 µM (CYP2C9; at 10 μM) was 46% and the inhibition at 1 µM (CYP2D6; at 1 μM) was 0%. It also gave an inhibition at 10 µM (CYP2D6; at 10 μM) of 11%, an inhibition at 1 µM (CYP3A4; at 1 μM) of 0% and an inhibition at 10 µM (CYP3A4; at 10 μM) of 12%.
In the case of `Cc1cc(-c2cccc(NS(C)(=O)=O)c2)cc2c1C(=O)N(C1CCC1)C2` [AZ12588953, N-(3-(2-cyclobutyl-7-methyl-1-oxoisoindolin-5-yl)phenyl)methanesulfonamide], the Ki (mGluR2 [1]) is reported as 2.02 nM and the Kd (mGluR2 [1]) is reported as 4.7 nM.
With `Cc1cc(-c2cccc(NS(C)(=O)=O)c2)cc2c1C(=O)N([C@@H](C)C(F)(F)F)C2` [AZ12592068, (S)-N-(3-(2-(1,1,1-trifluoropropan-2-yl)-7-methyl-1-oxoisoindolin-5-yl)phenyl)methanesulfonamide] the Ki (mGluR2 [1]) was 0.71 nM and the Kd (mGluR2 [1]) was 2 nM.
With `C[C@@H](C1CC1)N1Cc2cc(-c3cc(C(=O)N(C)C)no3)cc(Cl)c2C1=O` [AZD8418] the “Diminished [3H]AZ12559322 binding in NHP prefrontal cortex” value (mGluR2 [4]) was 40–45%.
For `Cc1cc(-c2nc(CN3CCNCC3)no2)cc2c1C(=O)N(Cc1ccc(OC(F)(F)F)cc1)C2` [AZD8529], the “Modulation in in situ GTPγS ARG” value (mGluR2 [5]) was “positive modulation” and the “Modulation in in situ GTPγS ARG” value (mGluR2 [6]) was “positive modulation”.
In the case of `COc1ccccc1Oc1ccc(N(Cc2cccnc2)S(=O)(=O)CC(F)(F)F)cc1` [LY-487379], the “Diminished [3H]AZ12559322 binding in NHP prefrontal cortex” value (mGluR2 [4]) is reported as 40–45%.
For `Cc1cc(-c2cccc(NS(C)(=O)=O)c2)cc2c1C(=O)N(C(C)C)C2` [[^3H]AZ12559322, [^3H]-N-[3-(2-Isopropyl-7-methyl-1-oxo-2,3-dihydro-1H-isoindol-5-yl)phenyl]methanesulfonamide], the “Regional distribution of radioligand binding in rat brain sections” value (mGluR2 [7]) was “heterogeneous distribution”.
In the case of `CC(C)N1Cc2cc(-c3cccc(NS(C)(=O)=O)c3)cc([11CH3])c2C1=O` [[^11C]AZ12559322], the “Brain exposure in PET imaging” value (mGluR2 [8]) is reported as “low brain uptake”.
